# Reference: the SangsterLogP compilation
# Assay: not given
row,Structure (SMILES),logP
1,CC(C)c1cccc(OCC(=O)O)c1,2.59
2,Cc1cccc(CO)c1,1.6
3,COC(=O)c1cccc(C(=O)O)c1,1.83
4,COc1ccc(CO)cc1,1.1
5,O=C(O)COc1ccccc1I,2.19
6,O=C(O)COc1ccc(C2CCCCC2)cc1,3.79
7,O=C(O)COc1cccc(S(=O)(=O)C(F)(F)F)c1,2.19
8,O=C(O)COc1ccc2c(c1)CCCC2,2.67
9,O=C(O)Cc1cccc(Cl)c1,2.09
10,Nc1cccc(CO)c1,-0.05
11,O=C(O)COc1cccc(-c2ccccc2)c1,3.18
12,O=C(O)COc1cccc(C(=O)O)c1,1.11
13,COc1cccc(OCC(=O)O)c1,1.38
14,CCCCc1cccc(OCC(=O)O)c1,3.18
15,CCCc1cccc(OCC(=O)O)c1,2.71
16,O=C(O)COc1cccc(SC(F)(F)F)c1,2.86
17,CS(=O)(=O)c1cccc(CC(=O)O)c1,0.06
18,O=C(O)COc1ccc(N=Nc2ccccc2)cc1,2.99
19,CSc1cccc(OCC(=O)O)c1,1.9
20,O=C(O)COc1ccc(C2CCCC2)cc1,3.41

row,Structure (SMILES),logP
1,O=[N+]([O-])c1cccc(Br)c1,2.64
2,O=C(O)Cc1cccc(O)c1,0.85
3,CCc1cccc(O)c1,2.4
4,CC(=O)Nc1cccc(OCC(=O)O)c1,0.48
5,CCC(C)c1ccc(OCC(=O)O)cc1 (stereo not given),3.12
6,O=C(O)COc1cccc(OC(F)(F)F)c1,2.48
7,O=C(O)Cc1ccc(Br)cc1,2.31
8,O=C(O)COc1ccc([N+](=O)[O-])cc1,1.48
9,Oc1cccc(I)c1,2.93
10,N#Cc1cccc(C(=O)O)c1,1.48
11,CN(C)c1cccc(O)c1,1.56
12,O=C(O)COc1cccc(NC(=O)c2ccccc2)c1,1.99
13,CC(=O)c1cccc(O)c1,1.39
14,O=C(O)Cc1cccc(Br)c1,2.37
15,O=[N+]([O-])c1cccc(CO)c1,1.21
16,Oc1ccccc1F,1.71
17,O=C(O)c1ccc(Br)cc1,2.86
18,O=C(O)c1cccc(C(=O)O)c1,1.66
19,COc1ccc(OCC(=O)O)cc1,1.23
20,NC(=O)Nc1cccc(OCC(=O)O)c1,0.26

row,Structure (SMILES),logP
1,O=C(O)COc1cccc([N+](=O)[O-])c1,1.37
2,CC(=O)c1cccc([N+](=O)[O-])c1,1.42
3,OCc1cccc(Cl)c1,1.94
4,CC(C)(C)c1cccc(OCC(=O)O)c1,2.96
5,O=C(O)COc1cccc(S(F)(F)(F)(F)F)c1,2.78
6,Nc1cccc(F)c1,1.3
7,O=C(O)COc1cccc(Cl)c1,2.03
8,O=C(O)COc1ccc(O)cc1,0.65
9,CS(=O)(=O)c1cccc(OCC(=O)O)c1,0.01
10,O=C(O)Cc1cccc([N+](=O)[O-])c1,1.45
11,O=C(O)c1cccc(C(F)(F)F)c1,2.95
12,O=C(O)COc1cccc(O)c1,0.76
13,CC(=O)c1ccccc1OCC(=O)O,1.25
14,O=C(O)COc1cccc(I)c1,2.44
15,CC(C)c1ccc(OCC(=O)O)cc1,2.69
16,O=C(O)COc1ccc2c(c1)CCC2,2.33
17,CC(=O)Oc1ccccc1,1.49
18,Oc1ccccc1Br,2.35
19,O=C(O)COc1cccc(F)c1,1.48
20,N#Cc1cccc(O)c1,1.7

# Assay: method code SF-C, from DOI: 10.1021/ja01077a028
row,Structure (SMILES),logP
1,O=C(O)Cc1cccc(F)c1,1.65
2,COc1cccc(CC(=O)O)c1,1.5
3,O=C(O)COc1ccccc1Cl,2.02
4,Cc1cccc(CC(=O)O)c1,1.95
5,O=C(O)COc1ccccc1[N+](=O)[O-],1.22
6,O=C(O)Cc1cccc(C(F)(F)F)c1,2.62
7,O=C(O)Cc1cccc(C(=O)O)c1,1.14
8,O=C(O)Cc1ccccc1F,1.5
9,O=C(O)COc1ccccc1Br,2.1
10,N#Cc1cccc(CC(=O)O)c1,1.18
